Test results reported in patent publication US9955691B2, “Macrocyclic picolinamides as fungicides” (DOW AGROSCIENCES LLC, priority 2014, dated 2018).
Like-named read-outs stand apart in the source and are kept apart here.

Columns and labels:
[1] = test system: Mycosphaerella graminicola; Anamorph: Septoria tritici; experiment: Fungicidal activity: Leaf Blotch of Wheat (SEPTTR); format: in vivo; details: Zymoseptoria tritici; for pest or weed control at 121.5 g/ha: Low Volume (121.5 g/H)
Outline: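 Compounds were dissolved in acetone, diluted with nine volumes of water containing 110 ppm Triton X-100, and sprayed to run-off on first-leaf Yuma wheat seedlings inoculated with Septoria tritici spores before or after treatment. Plants were held in a dew chamber, then a 20° C. greenhouse. Percent control was derived from disease severity relative to untreated plants.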

Puccinia triticina = experiment: Fungicidal activity: Wheat Brown Rust (PUCCRT); format: in vivo; details: for pest or weed control at 100 µg/mL: High Volume (100 ppm); for pest or weed control at 121.5 g/ha: Low Volume (121.5 g/H)
Outline: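 Percent control of brown rust was derived from 0-100% severity on treated versus untreated first leaves. Yuma wheat seedlings were spray-treated to run-off (acetone/water, Triton X-100) and inoculated with P. triticina spores before or after treatment, then held overnight in dark dew at 22° C and moved to a 24° C greenhouse.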

[2] = 24 h, High Volume (100 ppm), 1 Day Protectant, wheat leaf blotch, read-out: SEPTTR 1 DP disease control
[3] = 24 h, 1 Day Protectant, wheat leaf blotch, read-out: SEPTTR 1 DP disease control
[4] = 72 h, High Volume (100 ppm), 3 Day Curative, wheat leaf blotch, read-out: SEPTTR 3 DC disease control
[5] = 72 h, 3 Day Curative, wheat leaf blotch, read-out: SEPTTR 3 DC disease control
[6] = 24 h, 1 Day Protectant, read-out: PUCCRT 1 DP disease control
[7] = 72 h, 3 Day Curative, read-out: PUCCRT 3 DC disease control

SMILES | melting point [°C] | pest or weed control at 100 µg/mL [1, 2] [%] | pest or weed control at 121.5 g/ha [1, 3] [%] | pest or weed control at 100 µg/mL [1, 4] [%] | pest or weed control at 121.5 g/ha [1, 5] [%] | pest or weed control at 100 µg/mL (Puccinia triticina; [6]) [%] | pest or weed control at 121.5 g/ha (Puccinia triticina; [6]) [%] | pest or weed control at 100 µg/mL (Puccinia triticina; [7]) [%] | pest or weed control at 121.5 g/ha (Puccinia triticina; [7]) [%] | pest or weed control at 100 µg/mL ([1]; 24 h, read-out: SEPTTR 1 DP disease control) [%] | pest or weed control at 100 µg/mL ([1]; 72 h, read-out: SEPTTR 3 DC disease control) [%]
COc1ccnc(C(=O)N[C@@H]2COC[C@@H](Cc3ccccc3)[C@H](COCC(C)C)[C@@H](C)OC2=O)c1OCOC(C)=O [compound 13] | 44 to 48 | > 70 | > 70 | > 70 | > 70 | > 70 | > 70 | > 70 | > 70 |  | 
COc1ccnc(C(=O)N[C@H]2COC[C@H](CCC(C)C)[C@@H](C3CCCC3)[C@H](C)OC2=O)c1OCOC(C)=O [compound 93] | 47 to 53 |  | > 70 |  | < 70 |  | > 70 |  | < 70 |  | 
COc1ccnc(C(=O)N[C@H]2COC[C@H](Cc3ccccc3)[C@@H](COc3ccccc3)[C@H](C)OC2=O)c1OCOC(C)=O [compound 96] | 56 to 61 |  | > 70 |  | > 70 |  | > 70 |  | < 70 |  | 
COc1ccnc(C(=O)N[C@H]2COC[C@H](Cc3ccc(Cl)cc3)[C@@H](Cc3ccc(OC(F)(F)F)cc3)[C@H](C)OC2=O)c1OCOC(C)=O [compound 58] | 158 to 161 |  | > 70 |  | > 70 |  | > 70 |  | < 70 |  | 
COc1ccnc(C(=O)N[C@H]2COC[C@H](CCc3ccccc3)[C@@H](CCc3ccccc3)[C@H](C)OC2=O)c1O [compound 113] | 52 to 56 | > 70 |  | > 70 |  | > 70 |  | < 70 |  |  | 
CCC[C@H]1COC[C@H](NC(=O)c2nccc(OC)c2OC(C)=O)C(=O)O[C@@H](C)[C@@H]1Cc1ccc(F)cc1 [compound 107] | 57 to 62 |  | > 70 |  | > 70 |  | > 70 |  | > 70 |  | 
COc1ccnc(C(=O)N[C@H]2COC[C@H](Cc3ccccc3)[C@@H](c3ccccc3)[C@H](C)OC2=O)c1O [compound 132] | 185 to 190 | > 70 |  | > 70 |  | > 70 |  | > 70 |  |  | 
COc1ccnc(C(=O)N[C@H]2COC[C@H](Cc3ccc(C(F)(F)F)cc3)[C@@H](Cc3ccc(OC(F)(F)F)cc3)[C@H](C)OC2=O)c1OCOC(C)=O [compound 66] | 57 to 60 |  | > 70 |  | > 70 |  | > 70 |  | > 70 |  | 
CCC[C@H]1COC[C@H](NC(=O)c2nccc(OC)c2O)C(=O)O[C@@H](C)[C@@H]1Cc1ccc(F)cc1 [compound 155] | 43 to 48 | > 70 |  | > 70 |  | > 70 |  | < 70 |  |  | 
COc1ccnc(C(=O)N[C@H]2COC[C@H](Cc3ccccc3)[C@@H](Cc3ccccc3)[C@H](C)OC2=O)c1O [Cmpd. 112, N-((3S,7R,8R,9S)-7,8-dibenzyl-9-methyl-2-oxo-1,5-dioxonan-3-yl)-3-hydroxy-4-methoxypicolinamide] | 69 to 72 |  |  |  |  | < 70 |  | < 70 |  | < 70 | < 70

Second part, led by results:

melting point [°C] | SMILES | pest or weed control at 100 µg/mL [1, 2] [%] | pest or weed control at 121.5 g/ha [1, 3] [%] | pest or weed control at 100 µg/mL [1, 4] [%] | pest or weed control at 121.5 g/ha [1, 5] [%] | pest or weed control at 100 µg/mL (Puccinia triticina; [6]) [%] | pest or weed control at 121.5 g/ha (Puccinia triticina; [6]) [%] | pest or weed control at 100 µg/mL (Puccinia triticina; [7]) [%] | pest or weed control at 121.5 g/ha (Puccinia triticina; [7]) [%] | pest or weed control at 100 µg/mL ([1]; 24 h, read-out: SEPTTR 1 DP disease control) [%] | pest or weed control at 100 µg/mL ([1]; 72 h, read-out: SEPTTR 3 DC disease control) [%]
201 to 204 | COc1ccnc(C(=O)N[C@H]2COC[C@H](Cc3ccccc3)[C@@H](Cc3ccccc3)[C@@H](C)OC2=O)c1O [compound 111] | > 70 |  | < 70 |  | > 70 |  | > 70 |  |  | 
57 to 62 | COc1ccnc(C(=O)N[C@H]2COC[C@H](CCC(C)C)[C@@H](C3CCCC3)[C@H](C)OC2=O)c1OC(C)=O [compound 91] |  | > 70 |  | > 70 |  | > 70 |  | < 70 |  | 
56 to 61 | COc1ccnc(C(=O)N[C@H]2COC[C@H](CC3CC3)[C@@H](Cc3ccccc3)[C@H](C)OC2=O)c1O [compound 140] | > 70 |  | < 70 |  | > 70 |  | < 70 |  |  | 
37 to 41 | COc1ccnc(C(=O)N[C@H]2COC[C@H](CC3CC3)[C@@H](Cc3ccccc3)[C@H](C)OC2=O)c1OCOC(=O)C(C)C [compound 70] |  | > 70 |  | > 70 |  | > 70 |  | > 70 |  | 
50 to 56 | COc1ccnc(C(=O)N[C@H]2COC[C@H](CC3CCCCC3)[C@@H](CC3CCCCC3)[C@H](C)OC2=O)c1OCOC(C)=O [compound 10] | > 70 |  | < 70 |  | > 70 |  | > 70 |  |  | 
66 to 71 | COc1ccnc(C(=O)N[C@H]2COC[C@H](Cc3ccc(C(F)(F)F)cc3)[C@@H](CC(C)C)[C@H](C)OC2=O)c1O [compound 141] | > 70 |  | > 70 |  | > 70 |  | > 70 |  |  | 
80 to 85 | COc1ccnc(C(=O)N[C@H]2COC[C@H](Cc3ccc(Cl)cc3)[C@@H](Cc3ccc(OC(F)(F)F)cc3)[C@H](C)OC2=O)c1OC(C)=O [compound 59] |  | < 70 |  | < 70 |  | < 70 |  | < 70 |  | 
